In ChEMBL document CHEMBL1153484, “Design, synthesis and evaluation of N-[(3S)-pyrrolidin-3-yl]benzamides as selective noradrenaline reuptake inhibitors: CNS penetration in a more polar template” (Bioorg Med Chem Lett, 2009):
Activity calls are given as the source filed them. The rule behind the calls is not given here.

How the values were obtained:
Cytochrome P450 2D6 = Cytochrome P450 2D6 (Homo sapiens, UniProt P10635); experiment: Inhibition of CYP2D6; format: ADME
MDR1 (P-gp) [1] = experiment: Efflux ratio of permeability from […] in MDCK cells expressing MDR1 at 10 uM; format: ADME, cell-based, Canis lupus familiaris; conditions: dog
Cytochrome P450 1A2 = molecular target: T1, Cytochrome P450 1A2 (Homo sapiens, UniProt P05177); experiment: Inhibition of CYP1A2; format: ADME
T1 sequence (P05177 whole entry): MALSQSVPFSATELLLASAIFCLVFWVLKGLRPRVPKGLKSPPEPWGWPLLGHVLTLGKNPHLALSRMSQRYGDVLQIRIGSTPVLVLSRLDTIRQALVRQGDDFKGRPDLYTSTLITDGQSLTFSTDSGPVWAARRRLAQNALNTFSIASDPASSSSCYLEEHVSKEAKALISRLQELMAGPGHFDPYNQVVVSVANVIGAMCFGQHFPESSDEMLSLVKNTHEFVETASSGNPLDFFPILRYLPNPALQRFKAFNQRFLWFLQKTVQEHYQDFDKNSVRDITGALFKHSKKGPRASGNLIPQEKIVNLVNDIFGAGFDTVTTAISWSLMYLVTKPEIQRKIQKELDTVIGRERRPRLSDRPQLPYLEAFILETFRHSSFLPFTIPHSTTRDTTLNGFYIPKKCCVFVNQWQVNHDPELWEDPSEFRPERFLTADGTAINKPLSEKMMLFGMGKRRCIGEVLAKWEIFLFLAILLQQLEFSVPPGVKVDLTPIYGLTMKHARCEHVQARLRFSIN

[2] = molecular target: Voltage-gated inwardly rectifying potassium channel KCNH2 (Homo sapiens, UniProt Q12809); experiment: Displacement of [3H]dofetilide from human ERG
hERG (KCNH2) = hERG (KCNH2) (Homo sapiens, UniProt Q12809); experiment: Displacement of [3H]dofetilide from human ERG at 10 uM; conditions: probe [3H]dofetilide
MDR1 (P-gp) [3] = experiment: Apparent permeability from apical to basolateral side of MDCK cells expressing MDR1 at 10 uM; format: ADME, cell-based, Canis lupus familiaris; conditions: dog
[4] = Binding affinity to sodium channel site 2
Rattus norvegicus [5] = experiment: Effect on dihydroxyphenylacetic acid level in rat prefrontal cortex up to 3.2 mg/kg, sc by microdialysis method; format: functional, organism-based; design: dose 3.2 mg/kg
Cytochrome P450 3A4 [6] = molecular target: T2, Cytochrome P450 3A4 (Homo sapiens, UniProt P08684); experiment: Inhibition of CYP3A4 using felodipine as substrate; format: ADME
Cytochrome P450 3A4 [7] = molecular target: T2, Cytochrome P450 3A4; experiment: Inhibition of CYP3A4 using midazolam as substrate; format: ADME
[8] = Dissociation constant, pKa of the compound; format: physicochemical
[9] = molecular target: Sodium-dependent serotonin transporter (Homo sapiens, UniProt P31645); experiment: Displacement of [3H]citalopram from human recombinant SERT expressed in HEK293 cells by scintillation proximity assay; format: cell-based
Cytochrome P450 2C9 = Cytochrome P450 2C9 (Homo sapiens, UniProt P11712); experiment: Inhibition of CYP2C9; format: ADME
Rattus norvegicus [10] = experiment: Increase in noradrenaline level in interstitial fluid of rat prefrontal cortex at 0.3 to 3.2 mg/kg, sc by microdialysis method relative to baseline level; format: functional; conditions: dose mg/kg 0.3-3.2; route subcutaneous
[11] = molecular target: Sodium channel protein type 5 subunit alpha (Homo sapiens, UniProt Q14524); experiment: Blockade of Nav1.5 sodium channel
Cytochrome P450 3A4 [12] = molecular target: T2, Cytochrome P450 3A4; experiment: Inhibition of CYP3A4 using testosterone as substrate; format: ADME
[13] = molecular target: T3, Muscarinic acetylcholine receptor M5 (Homo sapiens) (UniProt P08912); experiment: Binding affinity to human muscarinic M5 receptor at 10 uM
T3 sequence (whole entry): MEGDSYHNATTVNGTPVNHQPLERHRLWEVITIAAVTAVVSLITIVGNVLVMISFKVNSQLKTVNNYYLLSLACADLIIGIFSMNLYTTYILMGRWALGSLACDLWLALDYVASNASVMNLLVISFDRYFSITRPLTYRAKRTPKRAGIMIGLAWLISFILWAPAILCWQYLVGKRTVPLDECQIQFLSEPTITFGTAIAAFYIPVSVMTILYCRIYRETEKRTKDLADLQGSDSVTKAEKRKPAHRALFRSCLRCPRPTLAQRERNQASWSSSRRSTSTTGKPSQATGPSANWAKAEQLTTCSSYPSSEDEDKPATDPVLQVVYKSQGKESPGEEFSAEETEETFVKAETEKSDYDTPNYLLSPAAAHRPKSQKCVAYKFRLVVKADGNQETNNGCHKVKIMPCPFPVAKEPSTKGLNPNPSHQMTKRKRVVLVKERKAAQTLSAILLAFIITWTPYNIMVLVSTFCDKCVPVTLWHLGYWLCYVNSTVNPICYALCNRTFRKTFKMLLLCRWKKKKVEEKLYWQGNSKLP

[14] = Intrinsic clearance in human liver microsomes; format: ADME, Microsome
Rattus norvegicus [15] = experiment: Effect on 5-hydroxyindoleacetic acid level in rat prefrontal cortex up to 3.2 mg/kg, sc by microdialysis method; format: functional, organism-based; design: dose 3.2 mg/kg
[16] = Apparent permeability from basolateral to apical side of human Caco-2 cells at 10 uM; format: ADME, cell-based
[17] = molecular target: Sodium-dependent noradrenaline transporter (Homo sapiens, UniProt P23975); experiment: Displacement of [3H]nisoxetine from human recombinant NET expressed in HEK293 cells by scintillation proximity assay; format: cell-based
MDR1 (P-gp) [18] = experiment: Apparent permeability from basolateral to apical side of MDCK cells expressing MDR1 at 10 uM; format: ADME, cell-based, Canis lupus familiaris; conditions: dog
[19] = Apparent permeability from apical to basolateral side of human Caco-2 cells at 10 uM; format: ADME, cell-based
[20] = molecular target: T4, Muscarinic acetylcholine receptor M4 (Homo sapiens, UniProt P08173); experiment: Binding affinity to human muscarinic M4 receptor
T4 sequence (P08173 whole entry): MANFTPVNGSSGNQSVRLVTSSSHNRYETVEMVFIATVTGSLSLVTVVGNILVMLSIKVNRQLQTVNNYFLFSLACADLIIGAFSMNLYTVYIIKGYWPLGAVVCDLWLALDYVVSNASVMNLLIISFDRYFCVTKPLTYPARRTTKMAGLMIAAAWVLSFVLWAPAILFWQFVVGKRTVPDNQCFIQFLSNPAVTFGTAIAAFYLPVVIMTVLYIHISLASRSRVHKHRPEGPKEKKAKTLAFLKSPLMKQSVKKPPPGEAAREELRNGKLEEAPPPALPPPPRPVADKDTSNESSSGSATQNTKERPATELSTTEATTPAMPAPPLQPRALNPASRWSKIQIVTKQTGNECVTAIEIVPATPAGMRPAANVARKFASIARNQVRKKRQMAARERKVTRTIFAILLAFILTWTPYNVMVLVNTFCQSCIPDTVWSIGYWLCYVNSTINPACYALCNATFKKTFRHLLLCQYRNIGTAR

Transporter = Transporter (Rattus norvegicus, UniProt Q63380); experiment: Binding affinity to rat NET expressed in HEK293 cells; format: cell-based
Rattus norvegicus [21] = experiment: Ex vivo NET occupancy in rat neocortical tissue at 3 mg/kg, sc after 1 hr by [3H]nisoxetine binding assay; format: functional; conditions: route subcutaneous
Cytochrome P450 2C19 = Cytochrome P450 2C19 (Homo sapiens, UniProt P33261); experiment: Inhibition of CYP2C19; format: ADME
[22] = molecular target: T5, Muscarinic acetylcholine receptor M4 (Homo sapiens) (UniProt P08173); experiment: Binding affinity to human muscarinic M4 receptor at 10 uM
T5 sequence (whole entry): T4 sequence (P08173 whole entry)

[23] = molecular target: Sodium-dependent dopamine transporter (Homo sapiens, UniProt Q01959); experiment: Displacement of radioligand from human recombinant DAT expressed in HEK293 cells by scintillation proximity assay; format: cell-based
[24] = molecular target: T6, Muscarinic acetylcholine receptor M5 (Homo sapiens, UniProt P08912); experiment: Binding affinity to human muscarinic M5 receptor
T6 sequence (P08912 whole entry): T3 sequence (whole entry)

T2 sequence (P08684 whole entry): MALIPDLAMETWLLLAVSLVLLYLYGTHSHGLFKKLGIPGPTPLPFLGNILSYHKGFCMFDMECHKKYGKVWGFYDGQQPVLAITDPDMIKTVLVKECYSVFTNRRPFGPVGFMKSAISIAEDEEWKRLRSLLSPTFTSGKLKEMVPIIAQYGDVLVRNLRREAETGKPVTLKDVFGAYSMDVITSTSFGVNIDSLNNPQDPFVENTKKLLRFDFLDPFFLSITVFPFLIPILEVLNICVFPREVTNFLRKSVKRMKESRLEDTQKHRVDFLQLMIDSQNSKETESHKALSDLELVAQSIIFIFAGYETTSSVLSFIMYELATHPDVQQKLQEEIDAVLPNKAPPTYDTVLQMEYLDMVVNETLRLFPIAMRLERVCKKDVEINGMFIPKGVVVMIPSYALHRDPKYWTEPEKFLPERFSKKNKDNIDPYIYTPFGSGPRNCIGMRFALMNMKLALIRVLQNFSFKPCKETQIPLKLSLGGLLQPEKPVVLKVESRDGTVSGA
Sodium-dependent noradrenaline transporter, sequence (P23975 whole entry): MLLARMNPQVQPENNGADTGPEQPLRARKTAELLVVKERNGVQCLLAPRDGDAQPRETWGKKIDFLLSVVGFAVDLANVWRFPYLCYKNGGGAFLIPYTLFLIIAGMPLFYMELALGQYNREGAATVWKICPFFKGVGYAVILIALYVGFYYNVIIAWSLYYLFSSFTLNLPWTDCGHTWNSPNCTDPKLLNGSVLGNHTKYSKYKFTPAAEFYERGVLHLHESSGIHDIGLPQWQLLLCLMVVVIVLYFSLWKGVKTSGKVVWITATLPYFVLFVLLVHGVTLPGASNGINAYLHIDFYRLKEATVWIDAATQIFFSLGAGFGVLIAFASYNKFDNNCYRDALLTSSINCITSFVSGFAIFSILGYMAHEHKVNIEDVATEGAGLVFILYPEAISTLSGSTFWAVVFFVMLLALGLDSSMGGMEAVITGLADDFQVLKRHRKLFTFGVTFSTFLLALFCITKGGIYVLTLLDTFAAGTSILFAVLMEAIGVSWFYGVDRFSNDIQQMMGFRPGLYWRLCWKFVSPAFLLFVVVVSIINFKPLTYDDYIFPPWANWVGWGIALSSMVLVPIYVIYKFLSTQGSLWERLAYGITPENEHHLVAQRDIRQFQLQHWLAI
Cytochrome P450 2D6, sequence (P10635 whole entry): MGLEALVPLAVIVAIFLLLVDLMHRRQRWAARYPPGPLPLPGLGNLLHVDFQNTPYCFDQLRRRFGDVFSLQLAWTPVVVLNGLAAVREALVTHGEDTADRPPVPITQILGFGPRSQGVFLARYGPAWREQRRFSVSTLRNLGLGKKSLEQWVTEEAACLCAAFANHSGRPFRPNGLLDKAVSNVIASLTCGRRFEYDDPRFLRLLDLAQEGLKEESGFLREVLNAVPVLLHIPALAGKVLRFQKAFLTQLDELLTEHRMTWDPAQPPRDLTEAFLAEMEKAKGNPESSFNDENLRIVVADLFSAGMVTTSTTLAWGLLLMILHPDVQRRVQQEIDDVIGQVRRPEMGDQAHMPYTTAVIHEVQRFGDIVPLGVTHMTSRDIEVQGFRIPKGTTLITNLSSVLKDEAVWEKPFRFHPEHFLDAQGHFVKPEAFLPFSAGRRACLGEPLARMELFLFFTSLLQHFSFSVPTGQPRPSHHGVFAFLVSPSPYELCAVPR
Sodium channel protein type 5 subunit alpha, sequence (Q14524 whole entry): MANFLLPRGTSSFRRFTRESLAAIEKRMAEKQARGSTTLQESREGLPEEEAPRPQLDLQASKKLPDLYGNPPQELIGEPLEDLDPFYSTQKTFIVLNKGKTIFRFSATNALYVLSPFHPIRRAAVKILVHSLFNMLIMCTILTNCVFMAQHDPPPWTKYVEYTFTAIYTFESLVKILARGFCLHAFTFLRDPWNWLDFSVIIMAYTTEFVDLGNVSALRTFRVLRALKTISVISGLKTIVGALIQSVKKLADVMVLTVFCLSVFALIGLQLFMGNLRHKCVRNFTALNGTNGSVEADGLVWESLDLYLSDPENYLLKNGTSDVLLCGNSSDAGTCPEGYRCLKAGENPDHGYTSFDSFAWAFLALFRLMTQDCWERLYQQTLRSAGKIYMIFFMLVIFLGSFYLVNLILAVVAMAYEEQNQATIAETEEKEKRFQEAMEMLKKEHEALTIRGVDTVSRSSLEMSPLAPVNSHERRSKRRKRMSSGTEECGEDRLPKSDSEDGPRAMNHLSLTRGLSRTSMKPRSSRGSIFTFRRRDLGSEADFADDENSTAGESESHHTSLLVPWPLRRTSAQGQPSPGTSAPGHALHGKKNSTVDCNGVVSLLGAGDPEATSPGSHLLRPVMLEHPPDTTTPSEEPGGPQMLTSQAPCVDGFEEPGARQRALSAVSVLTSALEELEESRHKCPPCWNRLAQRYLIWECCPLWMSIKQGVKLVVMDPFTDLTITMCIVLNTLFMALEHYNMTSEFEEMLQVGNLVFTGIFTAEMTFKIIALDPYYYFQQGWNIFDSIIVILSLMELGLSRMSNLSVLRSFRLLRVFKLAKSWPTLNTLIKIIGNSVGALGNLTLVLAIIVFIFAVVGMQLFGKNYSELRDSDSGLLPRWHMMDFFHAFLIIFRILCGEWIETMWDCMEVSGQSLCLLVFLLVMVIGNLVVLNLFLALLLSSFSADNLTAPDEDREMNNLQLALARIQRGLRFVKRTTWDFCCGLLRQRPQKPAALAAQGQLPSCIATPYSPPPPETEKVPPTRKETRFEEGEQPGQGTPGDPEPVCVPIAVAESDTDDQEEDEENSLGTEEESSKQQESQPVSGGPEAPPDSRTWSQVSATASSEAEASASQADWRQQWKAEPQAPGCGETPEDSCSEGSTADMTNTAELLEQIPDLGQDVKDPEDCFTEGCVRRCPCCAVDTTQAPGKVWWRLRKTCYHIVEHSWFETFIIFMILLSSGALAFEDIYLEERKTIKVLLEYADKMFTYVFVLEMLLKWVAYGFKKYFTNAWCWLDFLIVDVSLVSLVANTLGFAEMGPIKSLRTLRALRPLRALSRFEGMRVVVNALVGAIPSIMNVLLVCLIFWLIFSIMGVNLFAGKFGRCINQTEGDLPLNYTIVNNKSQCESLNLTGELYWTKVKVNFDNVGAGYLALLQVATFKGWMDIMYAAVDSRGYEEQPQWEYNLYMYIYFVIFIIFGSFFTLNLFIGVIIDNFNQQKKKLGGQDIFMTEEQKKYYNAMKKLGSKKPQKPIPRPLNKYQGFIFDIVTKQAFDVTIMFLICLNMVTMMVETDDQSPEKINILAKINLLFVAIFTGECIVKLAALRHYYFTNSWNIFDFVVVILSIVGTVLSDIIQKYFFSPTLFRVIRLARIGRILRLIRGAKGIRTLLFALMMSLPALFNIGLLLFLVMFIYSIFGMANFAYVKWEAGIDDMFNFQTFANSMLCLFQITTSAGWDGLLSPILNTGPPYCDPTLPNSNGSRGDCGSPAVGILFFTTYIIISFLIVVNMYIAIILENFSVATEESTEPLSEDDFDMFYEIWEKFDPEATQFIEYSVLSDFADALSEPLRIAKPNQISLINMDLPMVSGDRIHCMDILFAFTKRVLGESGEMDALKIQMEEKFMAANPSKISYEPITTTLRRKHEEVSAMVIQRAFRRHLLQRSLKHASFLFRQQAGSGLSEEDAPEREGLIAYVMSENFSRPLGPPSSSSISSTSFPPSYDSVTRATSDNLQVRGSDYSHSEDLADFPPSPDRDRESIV
Cytochrome P450 2C9, sequence (P11712 whole entry): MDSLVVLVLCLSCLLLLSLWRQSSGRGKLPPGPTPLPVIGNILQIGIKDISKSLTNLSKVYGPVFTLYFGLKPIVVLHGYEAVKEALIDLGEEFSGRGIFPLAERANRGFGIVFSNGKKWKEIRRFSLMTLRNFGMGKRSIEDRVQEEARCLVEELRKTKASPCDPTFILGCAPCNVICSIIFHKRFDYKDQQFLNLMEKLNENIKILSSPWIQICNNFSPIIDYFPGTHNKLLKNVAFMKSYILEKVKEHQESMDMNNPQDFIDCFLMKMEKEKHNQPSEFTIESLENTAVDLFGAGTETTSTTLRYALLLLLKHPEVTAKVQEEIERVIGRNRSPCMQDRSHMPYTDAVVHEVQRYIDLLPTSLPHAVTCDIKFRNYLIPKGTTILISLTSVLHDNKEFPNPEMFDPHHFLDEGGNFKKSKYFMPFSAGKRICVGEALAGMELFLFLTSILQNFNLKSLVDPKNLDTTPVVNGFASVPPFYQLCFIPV
Sodium-dependent dopamine transporter, sequence (Q01959 whole entry): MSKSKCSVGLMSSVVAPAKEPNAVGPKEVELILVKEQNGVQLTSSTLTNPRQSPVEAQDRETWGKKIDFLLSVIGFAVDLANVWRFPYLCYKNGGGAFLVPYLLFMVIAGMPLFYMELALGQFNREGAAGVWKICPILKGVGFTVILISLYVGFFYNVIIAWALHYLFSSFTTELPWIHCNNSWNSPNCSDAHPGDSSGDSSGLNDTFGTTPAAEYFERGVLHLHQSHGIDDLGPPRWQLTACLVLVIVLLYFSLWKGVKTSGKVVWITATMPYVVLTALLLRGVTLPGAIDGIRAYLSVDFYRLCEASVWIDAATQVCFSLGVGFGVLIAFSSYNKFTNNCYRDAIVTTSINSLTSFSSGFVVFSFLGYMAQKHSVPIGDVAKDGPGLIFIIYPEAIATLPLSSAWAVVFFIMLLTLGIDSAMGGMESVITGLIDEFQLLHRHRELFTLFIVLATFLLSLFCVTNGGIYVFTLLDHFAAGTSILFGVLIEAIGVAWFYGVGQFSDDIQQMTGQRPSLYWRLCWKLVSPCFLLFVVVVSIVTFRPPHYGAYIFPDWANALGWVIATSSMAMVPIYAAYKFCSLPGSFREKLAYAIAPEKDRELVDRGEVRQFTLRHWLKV

IC50 (Cytochrome P450 2D6): 15.1 µM
efflux ratio at 10 µM (MDR1 (P-gp) [1]): 5.2
IC50 (Cytochrome P450 1A2): > 30 µM
Papp A→B at 10 µM (MDR1 (P-gp) [3]): 11 ×10⁻⁶ cm/s
Ki [4]: 3.7 µM
IC50 (Cytochrome P450 3A4 [6]): 22 µM
IC50 (Cytochrome P450 3A4 [7]): 12.2 µM
pKa [8]: 9.5
Ki [9]: 0.224 µM
IC50 (Cytochrome P450 2C9): > 30 µM
IC50 (Cytochrome P450 3A4 [12]): 31.2 µM
inhibition [13]: > 50%
microsomal CLint [14]: < 7 µL/min/mg
Papp B→A at 10 µM [16]: 33 ×10⁻⁶ cm/s
Ki [17]: 0.006 µM
Papp B→A at 10 µM (MDR1 (P-gp) [18]): 57 ×10⁻⁶ cm/s
Papp A→B at 10 µM [19]: 16 ×10⁻⁶ cm/s
Ki [20]: 4.3 µM
Ki (Transporter): 0.0039 µM
IC50 (Cytochrome P450 2C19): > 30 µM
inhibition [22]: > 50%
Ki [23]: 2.29 µM
Ki [24]: 1.8 µM
SMILES: O=C(c1ccccc1C(F)(F)F)N(CC1CCC1)[C@H]1CCNC1
IC50 [2]: > 20 µM
inhibition at 10 µM (hERG (KCNH2)): 48%
Activity (Rattus norvegicus [5]): inactive
Activity (Rattus norvegicus [10]): 200%
IC50 [11]: > 26 µM
Activity (Rattus norvegicus [15]): inactive
Activity (Rattus norvegicus [21]): 52%
